Read-outs that look alike come from different tables or passages of the source.
What was measured:
Experiment in all cases: TEVC current recordings from Xenopus oocytes, channel blocker inhibition
Format in all cases: cell-based
[1] = biological target: WT GluN1/GluN2B (Homo sapiens, UniProt Q05586+Q13224); details: for IC50: IC50, WT GluN1/WT 2B, holding −40 mV; for % inhibition: WT GluN1/WT 2B, 300 μM blocker, −40 mV
[2] = biological target: GluN2B-N616K-containing NMDARs (Homo sapiens, UniProt Q05586+Q13224, N616K); details: for % inhibition: 2B-N616K, 300 μM blocker, −40 mV; for IC50: IC50, 2B-N616K, holding −40 mV
[3] = biological target: GluN1/GluN2B-N615I (Homo sapiens, UniProt Q05586+Q13224, N615I); details: for % inhibition: 2B-N615I, 300 μM blocker, −40 mV; for IC50: IC50, 2B-N615I, holding −40 mV
[4] = biological target: GluN2B-V618G-containing NMDARs (Homo sapiens, UniProt Q05586+Q13224, V618G); details: for % inhibition: 2B-V618G, 300 μM blocker, −40 mV; for IC50: IC50, 2B-V618G, holding −40 mV
[5] = biological target: GluN2B-V620M-containing NMDARs (Homo sapiens, UniProt Q05586+Q13224, V620M); details: for % inhibition: 2B-V620M, 300 μM blocker, −40 mV; for IC50: IC50, 2B-V620M, holding −40 mV
[6] = biological target: GluN1-G620R/GluN2A (Homo sapiens, UniProt Q05586+Q12879, G620R); details: for % inhibition: 1-G620R/2A, 300 μM blocker, −40 mV; for IC50: IC50, 1-G620R/2A, holding −40 mV
[7] = biological target: GluN1/GluN2B-N615K (Homo sapiens, UniProt Q05586+Q13224, N615K); details: for % inhibition: 300 μM blocker, −40 mV
[8] = biological target: GluN2A-N615K-containing NMDARs (Homo sapiens, UniProt Q05586+Q12879, N615K); details: for % inhibition: 2A-N615K, 300 μM blocker, −40 mV; for IC50: IC50, 2A-N615K, holding −40 mV
[9] = biological target: GluN2A-N614S-containing NMDARs (Homo sapiens, UniProt Q05586+Q12879, N614S); details: for % inhibition: 2A-N614S, 300 μM blocker, −40 mV; for IC50: IC50, 2A-N614S, holding −40 mV
[10] = biological target: GluN1/GluN2A-L611Q (Homo sapiens, UniProt Q05586+Q12879, L611Q); details: for % inhibition: 2A-L611Q, 300 μM blocker, −40 mV; for IC50: IC50, 2A-L611Q, holding −40 mV
[11] = biological target: WT GluN1/GluN2A (Homo sapiens, UniProt Q05586+Q12879); details: for IC50: IC50, WT GluN1/WT 2A, holding −40 mV; for % inhibition: WT GluN1/WT 2A, 300 μM blocker, −40 mV
[12] = biological target: GluN2B-G611V-containing NMDARs (Homo sapiens, UniProt Q05586+Q13224, G611V); details: for % inhibition: 2B-G611V, 300 μM blocker, −40 mV; for IC50: IC50, 2B-G611V, holding −40 mV
[13] = biological target: GluN2B-W607C-containing NMDARs (Homo sapiens, UniProt Q05586+Q13224, W607C); details: for % inhibition: 2B-W607C, 300 μM blocker, −40 mV; for IC50: IC50, 2B-W607C, holding −40 mV

COc1ccc2c(c1)[C@]13CCCC[C@@H]1[C@H](C2)N(C)CC3 [dextromethorphan]
IC50 ([1]; w/ 1 mM Mg^2+): 22 µM
IC50 ([1]; w/o Mg^2+): 4.8 µM
% inhibition ([1]; w/ 1 mM Mg^2+): 90 ± 1.9% (18)
% inhibition ([1]; w/o Mg^2+): 95 ± 1.2% (15)
% inhibition ([2]; w/ 1 mM Mg^2+): 93 ± 1.6% (7)
% inhibition ([2]; w/o Mg^2+): 94 ± 1.7% (10)
enhanced potency compared to the WT receptors ([2]; GluN2B-N616K, presence of 1 mM Mg^2+): 4.9 fold
IC50 ([2]; w/ 1 mM Mg^2+): 4.5 µM
IC50 ([2]; w/o Mg^2+): 3.2 µM
% inhibition ([3]; w/ 1 mM Mg^2+): 94 ± 1.5% (11)
% inhibition ([3]; w/o Mg^2+): 95 ± 1.4% (14)
IC50 ([3]; w/ 1 mM Mg^2+): 17 µM
IC50 ([3]; w/o Mg^2+): 15 µM
% inhibition ([4]; w/ 1 mM Mg^2+): 83 ± 4.0% (10)
% inhibition ([4]; w/o Mg^2+): 85 ± 1.7% (11)^¥
reduced potency compared to the WT receptors ([4]; GluN2B-V618G, presence of 1 mM Mg^2+): 3.2 fold
IC50 ([4]; w/ 1 mM Mg^2+): 71 µM
IC50 ([4]; w/o Mg^2+): 45 µM
% inhibition ([5]; w/ 1 mM Mg^2+): 87 ± 3.2% (8)
% inhibition ([5]; w/o Mg^2+): 93 ± 3.2% (8)
enhanced potency in comparison to WT NMDARs ([5]; GluN2B-V620M, absence of Mg^2+): 2.7 fold
enhanced potency compared to the WT receptors ([5]; GluN2B-V620M, presence of 1 mM Mg^2+): 6.3 fold
IC50 ([5]; w/ 1 mM Mg^2+): 3.5 µM
IC50 ([5]; w/o Mg^2+): 1.8 µM
% inhibition ([6]; w/ 1 mM Mg^2+): 96 ± 1.5% (8)^¥
% inhibition ([6]; w/o Mg^2+): 97 ± 1.4% (14)
enhanced potency in comparison to WT NMDARs ([6]; GluN1-G620R, absence of Mg^2+): 2.5 fold
enhanced potency compared to the WT receptors ([6]; GluN1-G620R, presence of 1 mM Mg^2+): 5.7 fold
IC50 ([6]; w/ 1 mM Mg^2+): 4.4 µM
IC50 ([6]; w/o Mg^2+): 4.4 µM
IC50 [7]: > 300 µM
% inhibition ([7]; 2B-N615K, w/ 1 mM Mg^2+): 33 ± 3.7% (18) ^*^¥
% inhibition ([7]; 2B-N615K, w/o Mg^2+): 14 ± 2.7% (8)^¥
IC50 ([7]; 2B-N615K, w/ 1 mM Mg^2+, holding −40 mV): > 300 µM
% inhibition ([8]; w/ 1 mM Mg^2+): 97 ± 0.9% (12)^¥
% inhibition ([8]; w/o Mg^2+): 98 ± 1.4% (8)
enhanced potency in comparison to WT NMDARs ([8]; GluN2A-N615K, absence of Mg^2+): 2.7 fold
enhanced potency compared to the WT receptors ([8]; GluN2A-N615K, presence of 1 mM Mg^2+): 8.3 fold
IC50 ([8]; w/ 1 mM Mg^2+): 3 µM
IC50 ([8]; w/o Mg^2+): 3.8 µM
% inhibition ([9]; w/ 1 mM Mg^2+): 85 ± 2.7% (11)
% inhibition ([9]; w/o Mg^2+): 85 ± 3.0% (10)^¥
IC50 ([9]; w/ 1 mM Mg^2+): 32 µM
IC50 ([9]; w/o Mg^2+): 22 µM
% inhibition ([10]; w/ 1 mM Mg^2+): 89 ± 2.3% (8)
% inhibition ([10]; w/o Mg^2+): 91 ± 1.4% (16)
IC50 ([10]; w/ 1 mM Mg^2+): 36 µM
IC50 ([10]; w/o Mg^2+): 27 µM
IC50 ([11]; w/ 1 mM Mg^2+): 25 µM
IC50 ([11]; w/o Mg^2+): 11 µM
% inhibition ([11]; w/ 1 mM Mg^2+): 88 ± 3.3% (10)
% inhibition ([11]; w/o Mg^2+): 95 ± 1.6% (19)
% inhibition ([12]; w/ 1 mM Mg^2+): 97 ± 1.0% (10)
% inhibition ([12]; w/o Mg^2+): 94 ± 2.3% (10)
enhanced potency compared to the WT receptors ([12]; GluN2B-G611V, presence of 1 mM Mg^2+): 3.5 fold
IC50 ([12]; w/ 1 mM Mg^2+): 6.2 µM
IC50 ([12]; w/o Mg^2+): 3.6 µM
% inhibition ([13]; w/ 1 mM Mg^2+): 95 ± 1.4% (12)
% inhibition ([13]; w/o Mg^2+): 90 ± 2.8% (11)
reduced potency in 1 mM Mg^2+ vs absence of Mg^2+ ([13]; GluN2B-W607C): 3 fold
IC50 ([13]; w/ 1 mM Mg^2+): 11 µM
IC50 ([13]; w/o Mg^2+): 3.7 µM
